Test: Competitive slurry experiments Form I vs. Form III
Type: physicochemical
Conditions: ca. 3 days
Experimental: Competitive slurry experiments were set up in acetone, isopropanol, acetone:water (80:20) and isopropyl acetate at both room temperature (ca. 22° C.) and 60° C. Approximately 200 mg of each of Forms I and III material was placed into a vial and 4 mL of the appropriate solvent system was added to produce a slurry. For each experiment, the slurries were allowed to stir for ca. 3 days. Analysis by XRPD was then conducted to determine the form of the resultant solid. Competitive slurry experiments of Form I vs. Form III were carried out in 4 solvent systems and resulting solids were analysed by XRPD analysis (FIG. 82 and FIG. 83).

- Result (form of resultant solid) (Acetone, 60° C.): Form I
- Result (form of resultant solid) (Acetone, RT (ca. 22° C.)): Form I
- Result (form of resultant solid) (Acetone:water (80:20), 60° C.): Form VIII
- Result (form of resultant solid) (Acetone:water (80:20), RT (ca. 22° C.)): Form VIII
- Result (form of resultant solid) (Isopropanol, 60° C.): Form I
- Result (form of resultant solid) (Isopropanol, RT (ca. 22° C.)): Form I
- Result (form of resultant solid) (Isopropyl acetate, 60° C.): Form I
- Result (form of resultant solid) (Isopropyl acetate, RT (ca. 22° C.)): Form I
SMILES: Br.C=CC(=O)Nc1cccc(Nc2nc(Nc3ccc(N4CCN(C(C)=O)CC4)cc3OC)ncc2C(F)(F)F)c1 [I and III]

— patent US20160074399A1, “Salts of an Epidermal Growth Factor Receptor Kinase Inhibitor” (Clovis Oncology, Inc., priority 2013, published 2016)
